Assay results: US4148919A, “7-Amino-6,7-dihydro [5H]benzocycloheptene derivatives” (Roussel Uclaf, priority 1975, dated 1979)

Key:
mice [1] = assay: Acute toxicity; assay type: in vivo; conditions: intraperitoneal administration, determined 48 hours later
Experimental: The DL50 dose which kills 50% of mice after intraperitoneal administration of the tested compound was determined 48 hours later and the DL50 for the compound of Example 1 was about 75 mg/kg.

mice [2] = assay: Potentialization of effects of monoamine oxidase inhibitor (nialamide hyperactivity, actimetry); assay type: in vivo; set-up: key: ++: expressed in increasing number of + signs for a determined dose in mg/kg; +++: expressed in increasing number of + signs for a determined dose in mg/kg; conditions: 30 minutes after nialamide 100 mg/kg i.p., actimetry for 6 hours
Experimental: The administration of a monoamine oxidase inhibitor to mice induces a hyperactive movement of the animals which is able to be potentialized by an antidepressant. Using the procedure of Carlsson et al. [Brain Research, Vol. 12 (1969), p. 456], a dose of 100 mg/kg of nialamide was intraperitoneally administered to mice 30 minutes before the intraperitoneal administration of the tested product and the values of actimetric measurements were recorded every 30 minutes for 6 hours. Potentiation of the effects of nialamide for the tested product was expressed in increasing number of + signs for a determined dose in mg/kg.

serotonine (5HT) uptake [3] = assay: Inhibition of Serotonine uptake in vivo (synaptosomes from treated rats); set-up: species or system rat; key: the activity was expressed in increasing number of + signs; conditions: 20 mg/kg intraperitoneal, female rats, brain removed after 30 minutes
Experimental: (§1) The inhibition of serotonine (5HT) uptake was measured in impure synaptosomes prepared from the entire brain of a female rat 19 to 21 days old using the technique of Kannengiesser et al. [Biochemical Pharmacology,Vol. 22, (1973) p. 73].
The tested products were intraperitoneally administered to groups of female rats 19 to 21 days old at doses of 5 to 20 mg/kg. After 30 minutes, the brain was removed and synaptosomes were prepared and placed in an incubator in the presence of 14 C-5HT as indicated in the previous test.

mice [4] = assay: Potentiation of effects of L-dopa in iproniazide-pretreated mice; assay type: in vivo; conditions: male mice, intraperitoneal, iproniazide 75 mg/kg 18 hours before, L-dopa 100 mg/kg i.p. one hour after product; 60 min
Experimental: The administration of L-dopa to mice pretreated 18 hours previously with iproniazide produced certain number of symptoms; muscular hypertonicity, hyperactivity, agitation, crying, aggressiveness, salivation and exophthalmy. The intensity of these effects is potentiated by administration of an antidepressant one hour before the administration of L-dopa. Male mices received intraperitoneally 75 mg/kg of iproniazide 18 hours before the start of the test and the tested product was intraperitoneally administered in aqueous solution in increasing doses. One hour later, L-dopa was intraperitoneally administered at a dose of 100 mg/kg and the different symptoms were observed 15 and 30 minutes later. They were evaluated on a scale of 0 to 3 for each animal and the totals for each dose were determined. The ED50 dose which potentiates by 50% the L-dopa effects was determined to be about 20 mg/kg for the product of Example 1.

serotonine (5HT) uptake [5] = assay: Inhibition of Serotonine uptake in vitro (impure brain synaptosomes); assay type: biochemical; conditions: female rat brain synaptosomes, 37° C. 5 minutes, 14C-5HT 10^-7 M
Experimental: as §1

7-amino-6,7-dihydro [5H] benzocycloheptene-hydrochloride [Example 1]
DL50 dose which kills 50% of mice (mice [1]): about 75 mg/kg
Potentiation of the effects of nialamide (mice [2]; 5 mg/kg intraperitoneal): ++
Potentiation of the effects of nialamide (mice [2]; 20 mg/kg intraperitoneal): +++
Relative power to inhibit the uptake of 14C-5HT (serotonine (5HT) uptake [3]): +
ED50 dose which potentiates by 50% the L-dopa effects (mice [4]): about 20 mg/kg
IC50 (serotonine (5HT) uptake [5]): ~2400 nM
